Data reported in patent US11236046B2, “Substituted heterocyclic sulfonamide compounds useful as TRPA1 modulators” (Genentech, Inc., priority 2013, dated 2022).

Legend:
[1] = in vivo rat pharmacokinetic (PK) studies, plasma clearance; settings: for clearance: plasma, read-out: Rat PK Clp
human TRPA1 = human TRPA1 (Homo sapiens (Human), UniProt O75762); test: IC50 determination on the human TRPA1 channel, calcium fluorescence (Hamamatsu FDSS plate reader); format: cell-based; settings: CHO cells expressing human TRPA1; block of cinnamaldehyde induced calcium influx; 20 minutes compound incubation; Hill coefficient fixed to 1.5; read-out: hTRPA1 AUC IC50
human TRPA1, sequence (O75762 whole entry): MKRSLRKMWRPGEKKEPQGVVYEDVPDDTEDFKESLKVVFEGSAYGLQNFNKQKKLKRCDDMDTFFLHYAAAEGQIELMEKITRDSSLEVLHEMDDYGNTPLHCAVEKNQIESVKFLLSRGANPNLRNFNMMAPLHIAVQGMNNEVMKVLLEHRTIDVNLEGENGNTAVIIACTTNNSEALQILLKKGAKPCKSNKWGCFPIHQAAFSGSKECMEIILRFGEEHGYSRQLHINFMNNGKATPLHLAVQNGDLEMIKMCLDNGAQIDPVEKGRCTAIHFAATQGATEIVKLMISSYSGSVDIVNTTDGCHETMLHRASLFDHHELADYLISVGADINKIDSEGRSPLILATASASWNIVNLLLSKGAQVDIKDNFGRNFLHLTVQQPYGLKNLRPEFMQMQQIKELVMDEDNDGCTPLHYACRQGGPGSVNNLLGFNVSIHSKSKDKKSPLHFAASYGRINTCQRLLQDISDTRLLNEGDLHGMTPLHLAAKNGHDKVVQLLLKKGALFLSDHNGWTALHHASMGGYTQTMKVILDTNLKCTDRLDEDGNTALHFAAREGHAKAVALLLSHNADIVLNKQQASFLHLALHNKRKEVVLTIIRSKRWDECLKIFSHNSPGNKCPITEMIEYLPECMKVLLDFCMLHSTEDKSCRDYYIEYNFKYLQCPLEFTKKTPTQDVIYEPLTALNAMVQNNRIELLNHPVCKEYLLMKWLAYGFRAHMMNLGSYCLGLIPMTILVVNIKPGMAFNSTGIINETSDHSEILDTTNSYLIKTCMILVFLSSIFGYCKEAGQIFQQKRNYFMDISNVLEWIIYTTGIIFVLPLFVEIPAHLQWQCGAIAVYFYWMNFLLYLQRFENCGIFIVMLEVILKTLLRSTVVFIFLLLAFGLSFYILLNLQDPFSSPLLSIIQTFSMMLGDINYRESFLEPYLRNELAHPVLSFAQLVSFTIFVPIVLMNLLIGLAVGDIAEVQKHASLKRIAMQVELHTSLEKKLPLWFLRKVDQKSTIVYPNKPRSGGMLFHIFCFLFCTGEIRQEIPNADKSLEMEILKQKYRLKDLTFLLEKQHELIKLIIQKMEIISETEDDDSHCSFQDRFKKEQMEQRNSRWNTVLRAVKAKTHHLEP
Procedure: IC50s (effective concentration) of compounds on the human TRPA1 channel were determined using a Hamamatsu FDSS fluorescence plate reader. CHO cells expressing human TRPA1 were plated into 384-well plates, incubated overnight at 37 C, and loaded with BD calcium indicator dye for 1 hr at 37° C. followed by 15 minutes. at room temperature. The assay buffer was Hank's Balanced Salt Solution (HBSS) containing 20 mM HEPES (pH readjusted to 7.4) along with 0.02% BSA.
Following dye load and plate cool down, compounds were added to the cells using the FDSS while monitoring fluorescence to determine whether any of the test compounds have TRPA1 agonist activity. Plates were then incubated with compound for 20 minutes at room temperature prior to adding agonist. Following this incubation, […] cinnamaldehyde was added to all wells of the plate and block of this cinnamaldehyde induced calcium influx was measured.
Fixing the Hill coefficient will generally reduce variability of the IC50 determination. The IC50s were examined by eye to make sure the MIN and MAX points were set correctly prior to validation of the results.

clearance [1] [mL/min/kg] | IC50 (human TRPA1) [nM] | Structure (SMILES) | further results
30 | – | O=C(NCc1cc(-c2ccc(C(F)(F)F)nc2)ncn1)[C@@H]1CC(F)(F)CN1S(=O)(=O)c1ccc(F)cc1 [(2S)-4,4-difluoro-1-(4-fluorophenyl)sulfonyl-N-[[6-[6-(trifluoromethyl)-3-pyridyl]pyrimidin-4-yl]methyl]pyrrolidine-2-carboxamide] | –
9.9 | – | O=C(NCc1cc(F)cc(-c2cnc(C(F)F)cn2)c1)[C@@H]1C[C@@H](F)CN1S(=O)(=O)c1ccc(F)cc1 [(2S,4R)-N-[[3-[5-(difluoromethyl)pyrazin-2-yl]-5-fluoro-phenyl]methyl] 4-fluoro-1-(4-fluorophenyl)sulfonyl-pyrrolidine-2-carboxamide] | –
13.2 | – | O=C(NCc1cc(-c2ccc(OC(F)F)cc2)ncn1)[C@@H]1C[C@@H](F)CN1S(=O)(=O)c1ccc(F)cc1 [(2S,4R)-N-[[6-[4-(difluoromethoxy)phenyl]pyrimidin-4-yl]methyl]-4-fluoro-1-(4-fluorophenyl)sulfonyl-pyrrolidine-2-carboxamide] | –
– | – | O=C(NCc1cc(-c2ccc(C(F)(F)F)nc2)ncn1)[C@@H]1C[C@@H](F)CN1S(=O)(=O)c1ccc(F)cc1 [(2S,4R)-4-fluoro-1-(4-fluorophenyl)sulfonyl-N-[[6-[6-(trifluoromethyl)-3-pyridyl]pyrimidin-4-yl]methyl]pyrrolidine-2-carboxamide] | Rat PK Clp [1]: 15 mL/min/kg; stability in in vivo rat PK studies (clearance from the blood), in words ([1]; compared with related compounds): highest stability (slowest clearance)
98 | – | O=C(NCc1cc(-c2ccc(C(F)(F)F)nc2)ncn1)[C@@H]1CCCN1S(=O)(=O)c1ccc(F)cc1 [(2S)-1-(4-fluorophenyl)sulfonyl-N-[[6-[6-(trifluoromethyl)-3-pyridyl]pyrimidin-4-yl]methyl]pyrrolidine-2-carboxamide] | –
– | 8 | O=C(NCc1cn(-c2ccc(C(F)(F)F)cc2)nc1Cl)[C@@H]1C[C@@H](F)CN1S(=O)(=O)c1ccc(F)cc1 [Example 16, (2S,4R)—N-([3-chloro-1-[4-(trifluoromethyl)phenyl]-1H-pyrazol-4-yl]methyl)-4-fluoro-1-[(4-fluorobenzene)sulfonyl]pyrrolidine-2-carboxamide] | –
– | 20 | O=C(NCc1cc(-c2ccc(C(F)(F)F)nc2)c(F)cn1)[C@@H]1C[C@@H](F)CN1S(=O)(=O)c1ccc(F)cc1 [Example 9, (2S,4R)-4-fluoro-N-((5′-fluoro-6-(trifluoromethyl)-3,4′-bipyridin-2′-yl)methyl)-1-(4-fluorophenylsulfonyl)pyrrolidine-2-carboxamide] | –
– | 32 | O=C(NCc1cc(-c2ccc(SC(F)(F)F)cc2)ncn1)[C@@H]1C[C@@H](F)CN1S(=O)(=O)c1ccc(F)cc1 [Example 29, (2S,4R)-4-fluoro-1-(4-fluorophenylsulfonyl)-N-((6-(4-(trifluoromethylthio)phenyl)pyrimidin-4-yl)methyl)pyrrolidine-2-carboxamide] | –
– | 55 | O=C(NCc1cn(-c2ccc(C(F)(F)F)nc2)nc1C1CC1)[C@@H]1C[C@@H](F)CN1S(=O)(=O)c1ccc(F)cc1 [Example 17, (2S,4R)—N-([3-cyclopropyl-1-[6-(trifluoromethyl)pyridin-3-yl]-1H-pyrazol-4-yl]methyl)-4-fluoro-1-[(4-fluorobenzene)sulfonyl]pyrrolidine-2-carboxamide] | –
11.3 | – | C[C@@]1(F)C[C@@H](C(=O)NCc2cc(-c3ccc(C(F)(F)F)nc3)ncn2)N(S(=O)(=O)c2ccc(F)cc2)C1 [(2S,4R)-4-fluoro-1-(4-fluorophenyl)sulfonyl-4-methyl-N-[[6-[6-(trifluoromethyl)-3-pyridyl]pyrimidin-4-yl]methyl]pyrrolidine-2-carboxamide] | –
13 | – | COc1nn(-c2ccc(C(F)(F)F)nc2)cc1CNC(=O)[C@@H]1C[C@@H](F)CN1S(=O)(=O)c1ccc(F)cc1 [(2S,4R)-4-fluoro-1-(4-fluorophenyl)sulfonyl-N-[[3-methoxy-1-[6-(trifluoromethyl)-3-pyridyl]pyrazol-4-yl]methyl]pyrrolidine-2-carboxamide] | –
– | 107 | O=C(NCc1cc(-c2ccc(C3CC3)cc2)ncn1)[C@@H]1C[C@@H](F)CN1S(=O)(=O)c1ccc(F)cc1 [Example 10, (2S,4R)—N-((6-(4-cyclopropylphenyl)pyrimidin-4-yl)methyl)-4-fluoro-1-(4-fluorophenylsulfonyl)pyrrolidine-2-carboxamide] | –
– | 30 | O=C(NCc1cc(-c2ccc(C(F)(F)F)cc2)ncn1)[C@@H]1C[C@@H](F)CN1S(=O)(=O)c1ccc(F)c(F)c1 [Example 26, (2S,4R)-1-(3,4-difluorophenylsulfonyl)-4-fluoro-N-((6-(4-(trifluoromethyl)phenyl)pyrimidin-4-yl)methyl)pyrrolidine-2-carboxamide] | –
5.9 | – | O=C(NCc1cc(-c2cnc(C(F)(F)F)nc2)c(F)cn1)[C@@H]1C[C@@H](F)CN1S(=O)(=O)c1ccc(F)cc1 [(2S,4R)-4-fluoro-1-(4-fluorophenyl)sulfonyl-N-[[5-fluoro-4-[2-(trifluoromethyl)pyrimidin-5-yl]-2-pyridyl]methyl]pyrrolidine-2-carboxamide] | –
– | 2700 | O=C(NCc1cc(-c2ccc(C3CC3)nc2)ncn1)[C@@H]1C[C@@H](F)CN1S(=O)(=O)c1ccc(F)cc1 [Example 23, (2S,4R)—N-((6-(6-cyclopropylpyridin-3-yl)pyrimidin-4-yl)methyl)-4-fluoro-1-(4-fluorophenylsulfonyl)pyrrolidine-2-carboxamide] | –
– | 30 | O=C(NCc1cn(-c2ccc(C(F)(F)F)nc2)nc1Cl)[C@@H]1C[C@@H](F)CN1S(=O)(=O)c1ccc(F)cc1 [Example 15, (2S,4R)—N-([3-chloro-1-[6-(trifluoromethyl)pyridin-3-yl]-1H-pyrazol-4-yl]methyl)-4-fluoro-1-[(4-fluorobenzene)sulfonyl]pyrrolidine-2-carboxamide] | –
– | 49 | N#Cc1ccc(S(=O)(=O)N2C[C@H](F)C[C@H]2C(=O)NCc2cn(-c3ccc(C(F)(F)F)cc3)nc2Cl)cc1 [Example 18, (2S,4R)—N-([3-chloro-1-[4-(trifluoromethyl)phenyl]-1H-pyrazol-4-yl]methyl)-1-[(4-cyanobenzene)sulfonyl]-4-fluoropyrrolidine-2-carboxamide] | –
7.6 | – | N#C[C@@H]1C[C@@H](C(=O)NCc2cc(-c3ccc(C(F)(F)F)cc3)ncn2)N(S(=O)(=O)c2ccc(F)cc2)C1 [(2S,4R)-4-cyano-1-(4-fluorophenyl)sulfonyl-N-[[6-[4-(trifluoromethyl)phenyl]pyrimidin-4-yl]methyl]pyrrolidine-2-carboxamide] | –
– | 17 | O=C(NCc1cc(-c2ccc(C(F)(F)F)nc2)ncc1F)[C@@H]1C[C@@H](F)CN1S(=O)(=O)c1ccc(F)cc1 [Example 8, (2S,4R)-4-fluoro-N-((5-fluoro-6′-(trifluoromethyl)-2,3′-bipyridin-4-yl)methyl)-1-(4-fluorophenylsulfonyl)pyrrolidine-2-carboxamide] | –
– | 29 | O=C(NCc1cc(-c2ccc(C(F)(F)F)nc2)ncn1)[C@]1(C(F)F)CCCN1S(=O)(=O)c1ccc(F)cc1 [Example 31, (S)-2-(difluoromethyl)-1-(4-fluorophenylsulfonyl)-N-((6-(6-(trifluoromethyl)pyridin-3-yl)pyrimidin-4-yl)methyl)pyrrolidine-2-carboxamide] | –
9.1 | – | O=C(NCc1cc(-c2ccc(C(F)(F)F)nc2)nc(-c2ccc(C(F)(F)F)nc2)c1)[C@@H]1C[C@@H](F)CN1S(=O)(=O)c1ccc(F)cc1 [(2S,4R)-N-[[2,6-bis[6-(trifluoromethyl)-3-pyridyl]-4-pyridyl]methyl]-4-fluoro-1-(4-fluorophenyl)sulfonyl-pyrrolidine-2-carboxamide] | –

Structure (SMILES) | clearance [1] [mL/min/kg] | IC50 (human TRPA1) [nM] | further results
O=C(NCc1cc(-c2ccc(C(F)(F)F)nc2)ncn1)[C@@H]1[C@@H](F)CCN1S(=O)(=O)c1ccc(F)cc1 [(2R,3S)-3-fluoro-1-(4-fluorophenyl)sulfonyl-N-[[6-[6-(trifluoromethyl)-3-pyridyl]pyrimidin-4-yl]methyl]pyrrolidine-2-carboxamide] | 101 | – | –
C[C@@]1(C(=O)NCc2cc(-c3ccc(C(F)(F)F)nc3)ncn2)C[C@@H](F)CN1S(=O)(=O)c1ccc(F)cc1 [(2S,4R)-4-fluoro-1-(4-fluorophenyl)sulfonyl-2-methyl-N-[[6-[6-(trifluoromethyl)-3-pyridyl]pyrimidin-4-yl]methyl]pyrrolidine-2-carboxamide] | 15 | – | –
O=C(NCc1cc(-c2ccc(C(F)(F)F)nc2)ncn1)[C@@H]1[C@@H](F)CCN1S(=O)(=O)c1ccc(F)cc1 [Example 35, (2R,3S)-3-fluoro-1-(4-fluorophenylsulfonyl)-N-((6-(6-(trifluoromethyl)pyridin-3-yl)pyrimidin-4-yl)methyl)pyrrolidine-2-carboxamide] | – | 23 | –
O=C(NCc1cc(-c2ccc(C(F)(F)F)nc2)ncn1)[C@@H]1[C@H](F)CCN1S(=O)(=O)c1ccc(F)cc1 [Example 36, (2R,3R)-3-fluoro-1-(4-fluorophenylsulfonyl)-N-((6-(6-(trifluoromethyl)pyridin-3-yl)pyrimidin-4-yl)methyl)pyrrolidine-2-carboxamide] | – | 120 | –
COc1nc(CNC(=O)[C@@H]2C[C@@H](F)CN2S(=O)(=O)c2ccc(F)cc2)cc(-c2ccc(C(F)(F)F)nc2)n1 [(2S,4R)-4-fluoro-1-(4-fluorophenyl)sulfonyl-N-[[2-methoxy-6-[6-(trifluoromethyl)-3-pyridyl]pyrimidin-4-yl]methyl]pyrrolidine-2-carboxamide] | 16.5 | – | –
